Reference: ChEMBL document CHEMBL1156824, “Physicochemical space for optimum oral bioavailability: contribution of human intestinal absorption and first-pass elimination” (J Med Chem, 2010)

Key:
[1] = clinical; conditions: human, in vivo
[2] = organism: Homo sapiens; assay: Hepatic clearance in human; conditions: in vivo

Row | Compound | CL renal [1] [mL/min/kg] | CL [2] [mL/min/kg]
1 | CC(CC(c1ccccc1)c1ccccc1)NC(C)(C)C (stereo not drawn) [TERODILINE] | 0.1 | 1
2 | CC1=NS(=O)(=O)c2cc(Cl)ccc2N1 [DIAZOXIDE] | 0.1 | –
3 | C[C@@H]1C(=O)O[C@H]2[C@H](O)[C@@]34[C@H]5C[C@@H](C(C)(C)C)[C@]36[C@@H](OC(=O)[C@@H]6O)O[C@@]4(C(=O)O5)[C@@]12O [GINKOLIDE B] | 1 | 1.3
4 | COc1ccccc1N1CCN(CCCNc2cc(=O)n(C)c(=O)n2C)CC1 | 0.5 | 2.6
5 | CCO[C@@H](Cc1ccc(OCCc2ccc(OS(C)(=O)=O)cc2)cc1)C(=O)O [TESAGLITAZAR] | 0.007 | 0.032
6 | C[C@H]1c2cccc(O)c2C(=O)C2=C(O)[C@]3(O)C(=O)C(C(N)=O)=C(O)[C@@H](N(C)C)[C@@H]3[C@@H](O)[C@@H]21.O [DOXYCYCLINE] | 0.2 | 0.3
7 | CCCNC(=O)NS(=O)(=O)c1ccc(Cl)cc1 [CHLORPROPAMIDE] | 0.009 | 0.036
8 | Cc1ccnc2c1NC(=O)c1cccnc1N2C1CC1 [NEVIRAPINE] | 0.0069 | 0.3
9 | O=C1CN=C(c2ccccc2)c2cc([N+](=O)[O-])ccc2N1 [NITRAZEPAM] | 0.0086 | 0.9
10 | Cc1ccc(C(=O)Nc2ccc(S(=O)(=O)O)c3cc(S(=O)(=O)O)cc(S(=O)(=O)O)c23)cc1NC(=O)c1cccc(NC(=O)Nc2cccc(C(=O)Nc3cc(C(=O)Nc4ccc(S(=O)(=O)O)c5cc(S(=O)(=O)O)cc(S(=O)(=O)O)c45)ccc3C)c2)c1 [SURAMIN] | 0.0046 | 0.0011
11 | O=C(NCCN1CCOCC1)c1ccc(Cl)cc1 [MOCLOBEMIDE] | 0.1 | 10
12 | O=c1[nH]c2ccccc2n1CCCN1CCC(n2c(=O)[nH]c3cc(Cl)ccc32)CC1 [DOMPERIDONE] | 0.038 | 9.5
13 | CN(C)C(=O)Oc1cccc([N+](C)(C)C)c1.[Br-] [NEOSTIGMINE BROMIDE] | 5.4 | 3.8
14 | Cc1nnc(SCC2=C(C(=O)O)N3C(=O)[C@@H](NC(=O)[C@H](O)c4ccccc4)[C@H]3SC2)s1 | 2.4 | 0.2
15 | CN1C(=O)CC[C@H]1c1cccnc1 [COTININE] | 0.1 | 0.8
16 | CCC[C@@H]1C[C@@H](C(=O)N[C@@H]([C@H]2O[C@H](SC)[C@H](O)[C@@H](O)[C@H]2O)[C@H](C)Cl)N(C)C1 [CLINDAMYCIN] | 0.6 | 3.9
17 | Cc1cc(NC(=O)C2=C(O)c3ccccc3S(=O)(=O)N2C)no1 [ISOXICAM] | 0.0014 | 0.1
18 | CCN1CC(CCN2CCOCC2)C(c2ccccc2)(c2ccccc2)C1=O (stereo not drawn) [DOXAPRAM] | 0.3 | 5
19 | Cn1c(=O)c2c(ncn2CC(O)CO)n(C)c1=O (stereo not drawn) [DYPHYLLINE] | 4 | 0.8
20 | CCOC(=O)Nc1ccc(NCc2ccc(F)cc2)nc1N [FLUPIRTINE] | 0.3 | 1.3
21 | CC[C@H]1OC(=O)[C@H](C)[C@@H](O[C@H]2C[C@@](C)(OC)[C@@H](O)[C@H](C)O2)[C@H](C)[C@@H](O[C@@H]2O[C@H](C)C[C@H](N(C)C)[C@H]2O)[C@](C)(OC)C[C@@H](C)C(=O)[C@H](C)[C@@H](O)[C@]1(C)O [CLARITHROMYCIN] | 2.6 | 4.7
22 | Cn1c(=O)c2c(ncn2C)n(C)c1=O [CAFFEINE] | 0.017 | 1.4
23 | COc1cccc(C2(O)CCCCC2CN(C)C)c1 (stereo not drawn) [TRAMADOL] | 1 | 5.5

Row | Compound | CL renal [1] [mL/min/kg] | CL [2] [mL/min/kg]
24 | NC(=O)NO [HYDROXYUREA] | 0.5 | 1
25 | COCCc1ccc(OCC(O)CNC(C)C)cc1 (stereo not drawn) [METOPROLOL] | 0.7 | 12.4
26 | CCCCCNC(=N)N/N=C/c1c[nH]c2ccc(OC)cc12 [TEGASEROD] | 0.4 | 17.6
27 | CN(C)CCCN1c2ccccc2Sc2ccc(Cl)cc21 [CHLORPROMAZINE] | 0.2 | 15.8
28 | COc1cc2nc(N3CCN(C(=O)C4CCCO4)CC3)nc(N)c2cc1OC (stereo not drawn) [TERAZOSIN] | 0.1 | 1
29 | Cc1ccsc1C(=CCCN1CCC[C@@H](C(=O)O)C1)c1sccc1C [TIAGABINE] | 0.032 | 1.6
30 | CCCC(CCC)C(=O)O [VALPROIC ACID] | 0.0029 | –
31 | C[C@@H]1C[C@H]2[C@@H]3CCC4=CC(=O)C=C[C@]4(C)[C@@]3(F)[C@@H](O)C[C@]2(C)[C@@]1(O)C(=O)CO [DEXAMETHASONE] | 0.1 | 3.2
32 | COc1ccc2c(c1)N(C[C@H](C)CN(C)C)c1ccccc1S2 [LEVOMEPROMAZINE] | 4 | 5.9
33 | COc1ccc([C@]2(C#N)CC[C@@H](C(=O)O)CC2)cc1OC1CCCC1 [CILOMILAST] | 0.005 | 0.5
34 | OC(Cn1cncn1)(Cn1cncn1)c1ccc(F)cc1F [FLUCONAZOLE] | 0.2 | 0.1
35 | CCC1(c2ccccc2)C(=O)NC(=O)NC1=O [PHENOBARBITAL] | 0.0151 | 0.0479
36 | O=C(N[C@H](CO)[C@H](O)c1ccc([N+](=O)[O-])cc1)C(Cl)Cl [CHLORAMPHENICOL] | 0.2 | 2.2
37 | C[C@H]1O[C@H](O[C@H]2[C@H](O)[C@@H](O)[C@@H](O[C@H]3[C@H](O)[C@@H](O)C(O)O[C@@H]3CO)O[C@@H]2CO)[C@H](O)[C@@H](O)[C@@H]1N[C@H]1C=C(CO)[C@@H](O)[C@H](O)[C@H]1O (stereo partly drawn) [ACARBOSE] | 2.1 | 0.1
38 | CCCCNc1cc(C(=O)O)cc(S(N)(=O)=O)c1Oc1ccccc1 [BUMETANIDE] | 1.5 | 1
39 | NC(=O)CN1CC(O)CC1=O (stereo not drawn) [OXIRACETAM] | 1.7 | 0.1
40 | C[C@H]([C@](O)(Cn1cncn1)c1ccc(F)cc1F)S(C)(=O)=O [GENACONAZOLE] | 0.2 | 0.038
41 | Cc1nccn1CC1CCc2c(c3ccccc3n2C)C1=O (stereo not drawn) [ONDANSETRON] | 0.3 | 5.5
42 | CCN1CCC[C@H]1CNC(=O)c1c(OC)ccc(Br)c1OC [REMOXIPRIDE] | 0.4 | 1.3
43 | Cc1cc(=O)n(-c2ccccc2)n1C [ANTIPYRINE] | 0.0243 | 0.6
44 | Cn1c(=O)c2[nH]cnc2n(C)c1=O.O [THEOPHYLLINE] | 0.1 | 0.8
45 | O=C1CN=C(c2ccccn2)c2cc(Br)ccc2N1 [BROMAZEPAM] | 0.3 | 0.3
46 | NS(=O)(=O)c1cc2c(cc1C(F)(F)F)NCNS2(=O)=O [HYDROFLUMETHIAZIDE] | 9 | 0.7

Row | Compound | CL renal [1] [mL/min/kg] | CL [2] [mL/min/kg]
47 | CCC1=C(C)CN(C(=O)NCCc2ccc(S(=O)(=O)NC(=O)N[C@H]3CC[C@H](C)CC3)cc2)C1=O [GLIMEPIRIDE] | 0.002 | 0.5
48 | O=C(O)CCCc1ccc(N(CCCl)CCCl)cc1 [CHLORAMBUCIL] | 0.028 | 2.8
49 | CN(C)CCCC1(c2ccc(F)cc2)OCc2cc(C#N)ccc21 (stereo not drawn) [CITALOPRAM] | 0.5 | 3.8
50 | O=P1(NCCCl)OCCCN1CCCl (stereo not drawn) [IFOSFAMIDE] | 0.6 | 0.5
51 | C=CCN1CCCC1CNC(=O)c1cc2[nH]nnc2cc1OC (stereo not drawn) [ALIZAPRIDE] | 5.3 | 1.3
52 | CS(=O)(=O)OCCCCOS(C)(=O)=O [BUSULFAN] | 0.024 | 2.4
53 | O=c1n(CCCN2CCN(c3cccc(Cl)c3)CC2)nc2ccccn12 [TRAZODONE] | 0.0018 | 1.4
54 | CCCCN1CCCCC1C(=O)Nc1c(C)cccc1C (stereo not drawn) [BUPIVACAINE] | 0.1 | 4.2
55 | C[C@@H]1C(=O)O[C@H]2C[C@@]34[C@H]5C[C@@H](C(C)(C)C)[C@]36[C@@H](OC(=O)[C@@H]6O)O[C@@]4(C(=O)O5)[C@]21O [GINKGOLIDE A] | 1.7 | 0.7
56 | CN(C)CCC=C1c2ccccc2CCc2ccccc21 [AMITRIPTYLINE] | 0.1 | 6
57 | O=C1CN=C(c2ccccc2Cl)c2cc([N+](=O)[O-])ccc2N1 [CLONAZEPAM] | 0.0088 | 0.9
58 | CCOC(=O)c1ncn2c1CN(C)C(=O)c1cc(F)ccc1-2 [FLUMAZENIL] | 0.032 | 16
59 | CN(C(=O)c1c(O)c2ccccc2n(C)c1=O)c1ccccc1 [ROQUINIMEX] | 0.0008 | 0.1
60 | CNCC[C@@H](Oc1ccccc1C)c1ccccc1 [ATOMOXETINE] | 0.3 | 9
61 | CCOc1cc(CC(=O)N[C@@H](CC(C)C)c2ccccc2N2CCCCC2)ccc1C(=O)O [REPAGLINIDE] | 0.1 | 7.7
62 | CC(=O)CC(c1ccccc1)c1c(O)c2ccccc2oc1=O (stereo not drawn) [WARFARIN] | 0.0011 | 0.1
63 | OC(CCN1CCCC1)(c1ccccc1)C1CCCCC1 (stereo not drawn) [PROCYCLIDINE] | 0.043 | 0.8
64 | c1ccc(C2(N3CCCCC3)CCCCC2)cc1 [PHENCYCLIDINE] | 0.8 | 4.3
65 | CN1CCN2c3ncccc3Cc3ccccc3C2C1 (stereo not drawn) [MIRTAZAPINE] | 0.3 | 7.7
66 | CN(C)CCC(c1ccc(Cl)cc1)c1ccccn1 (stereo not drawn) [CHLORPHENIRAMINE] | 0.4 | 2.1
67 | CCCCCN(CCCOC)C(=O)[C@@H](CCC(=O)O)NC(=O)c1ccc(Cl)c(Cl)c1 [DEXLOXIGLUMIDE] | 0.4 | 3.3
68 | CC(C)(C)NC(=O)[C@H]1CC[C@H]2[C@@H]3CC[C@H]4NC(=O)C=C[C@]4(C)[C@H]3CC[C@]12C [FINASTERIDE] | 0.024 | –
